Experimental data from ChEMBL document CHEMBL1151727, “Citrullination of linear and cyclic altered peptide ligands from myelin basic protein (MBP(87-99)) epitope elicits a Th1 polarized response by T cells isolated from multiple sclerosis patients: implications in triggering disease” (J Med Chem, 2008).
Activity calls are given as the source filed them. Where a SMILES comes first, the peptide text is derived from it. [ ]: non-standard residue; d: D form. Cit = NC(=O)NCCC[C@H](N)C(=O)O

Tests used:
Format in all cases: functional, cell-based
PBMC [1] = assay: Increase in IFN-gamma secretion in PBMC isolated from multiple sclerosis patient at 10 pg/mL per 10^6 cells after 72 hrs by ELISA; details: Homo sapiens
PBMC [2] = assay: Increase in IL2 secretion in PBMC isolated from multiple sclerosis patient at 10 pg/mL per 10^6 cells after 72 hrs by ELISA; details: Homo sapiens
PBMC [3] = assay: Induction of IL10 secretion in healthy human PBMC at 10 pg/mL per 10^6 cells after 72 hrs by ELISA
PBMC [4] = assay: Induction of IFN-gamma secretion in healthy human PBMC at 10 pg/mL per 10^6 cells after 72 hrs by ELISA
PBMC [5] = assay: Decrease in IL10 secretion in PBMC isolated from multiple sclerosis patient at 10 pg/mL per 10^6 cells after 72 hrs by ELISA; details: Homo sapiens

Measured: Activity

CC[C@H](C)[C@H](NC(=O)[C@H](CC(N)=O)NC(=O)[C@H](CCCNC(N)=O)NC(=O)[C@H](Cc1ccccc1)NC(=O)[C@H](Cc1ccccc1)NC(=O)[C@H](Cc1cnc[nH]1)NC(=O)[C@@H](N)C(C)C)C(=O)N[C@H](C(=O)N[C@H](C(=O)N[C@@H](C)C(=O)N[C@@H](CCCNC(N)=O)C(=O)N[C@H](C(=O)N1CCC[C@H]1C(=O)O)[C@@H](C)O)[C@@H](C)O)C(C)C (H-VHFF[Cit]NIVTA[Cit]TP-OH)
active: all assays above

H-VHFFRNIVTARTP-OH
active: PBMC [3] | PBMC [4]

CC[C@H](C)[C@H](NC(=O)[C@H](CC(N)=O)NC(=O)[C@H](CCCCN)NC(=O)[C@H](Cc1ccccc1)NC(=O)[C@H](Cc1ccccc1)NC(=O)[C@H](Cc1cnc[nH]1)NC(=O)[C@@H](N)C(C)C)C(=O)N[C@H](C(=O)N[C@H](C(=O)N1CCC[C@H]1C(=O)N[C@@H](CCCNC(=N)N)C(=O)N[C@H](C(=O)N1CCC[C@H]1C(=O)O)[C@@H](C)O)[C@@H](C)O)C(C)C
active: PBMC [3] | PBMC [5]
